Patent US10473646B2, “In vitro culturing or expanding human or animal tissue” (UNIVERSITAETSSPITAL BASEL, priority 2014, dated 2019)
Blank lines part the entries; values can stand above or below the compound they belong to.

How the values were obtained:
Type in all cases: cell-based, human
[1] = test system: Luminal A breast cancer tissue; assay: Estrogen supplementation effect on in vitro culture of Luminal A breast cancer tissue chunks; conditions: 200 ng/mL, medium with 10% autologous serum
Procedure: (§1) The system is tested mainly for colorectal cancer and Luminal A breast cancer. Thereby a tissue specimen is manually cut in small chunks at a size of 1 mm to 2 mm per side. The pieces are placed in between two collagen scaffolds having a diameter of 8 mm to create an assembly or “sandwich” that it is then placed in a perfusion chamber of the 3D perfusion bioreactor. For each bioreactor, 8-10 mL of culture media are used. The chunks are cultured for 10 to 20 days without medium change.
(§2) Thereby, essentially the same or similar methods and procedures are applied as described hereinbefore in connection with the second example directed to colorectal cancer tissue.
(§3) Luminal A breast cancer is defined as estrogen receptor (ER) positive, progesterone receptor (PR) positive, human epidermal growth factor receptor 2 (HER2) negative and with few proliferating tumor cells (low % of Ki67 positive cells). This type of tumor requires estrogen as growth factor for its survival and expansion. The downsized tissue or tissue chunks are cultured in a medium containing 10% of human autologous serum (AS), therefore receiving all the growth factors comprising the estrogen. […]
The estrogen supplementation effect on in vitro culture is evaluated. […]

[2] = test system: Luminal A breast cancer tissue; assay: In-vitro drug test on Luminal A breast cancer tissue chunks cultured in 3D perfusion bioreactor; conditions: 100 nM, added at day 0 of bioreactor culture
Procedure: as §1, §2, §3

[3] = test system: tumor infiltrating lymphocytes (TILs) in Luminal A Breast Cancer (MAM18); assay: PHA stimulation of tumor infiltrating lymphocytes in in vitro cultured tumor chunks (immunohistochemistry CD45, CD3, CD68); conditions: 1 ng/mL added at day 0, 7 days
Procedure: One important component of the tumor microenvironment is represented by the tumor infiltrating lymphocytes (TILs) that for some tumor types plays an important role by determining the patient prognosis and it is gaining a major attention in the so called cancer immune-therapy. By using PHA (Phytohemagglutinin), TILs are stimulated in their metabolic and proliferative activity, in order to understand if it was possible their stimulation inside the in vitro cultured tumor chunks. The PHA (1 ng/mL) is added at the beginning of the bioreactor culture (day 0).
These raise the possibility to study immunological question or test cancer immunotherapies on in vitro cultured tumor specimens.

Compound: 2-Estradiol
survival and proliferation of the tissue with extra estrogen supplementation (E+) versus without (E-) [1]: do not show any particular difference

effect of anti-estrogen receptor drug treatment on in vitro cultured tumor tissue (FIG. 13) [2]: there is an effect
Compound: C[C@]12CC[C@@H]3c4ccc(O)cc4C[C@@H](CCCCCCCCC[S+]([O-])CCCC(F)(F)C(F)(F)F)[C@H]3[C@@H]1CC[C@@H]2O (stereo partly drawn) [Fulvestrant]

Compound: Phytohemagglutinin [PHA]
presence of TILs after PHA treatment (CD45, CD3, CD68 staining, FIG. 14) [3]: the presence of TILs is still detectable
